The source of these data is patent US5885994A, “Tetrahydroquinoxaline dopamine D4 receptor antagonists” (Warner-Lambert Company, priority 1998, dated 1999).

Test [1] concerns apomorphine-induced disruption of prepulse inhibition. In words: Prepulse inhibition of acoustic startle model in rats. The note with it: rat, 30 mg/kg IP. In kind it is in vivo. From the text:
PROTOCOL FOR THE PREPULSE INHIBITION OF ACOUSTIC STARTLE MODEL IN RATS
Prepulse inhibition (PPI) of acoustic startle is a form of sensorimotor gating which occurs when a weak stimulus precedes a startling stimulus, resulting in diminution of the startle response amplitude. […] Thus, an animal model utilizing this phenomenon would be quite useful in the study of known and potential antipsychotic agents.
This indicates a possible role of DA D2-like receptor stimulation in reducing sensorimotor gating in the rat.
Male Sprague-Dawley rats from Harlan Labs (180-280 g) were housed in groups of five rats per cage and maintained on a 12-hour light/dark cycle with free access to food pellets and water. […]
Eight startle chambers (SR-LAB, San Diego Instruments) were used, each consisting of a Plexiglas cylinder resting on a Plexiglas frame within a ventilated sound-attenuating enclosure. […] The average responses during the 100 msec record window (100×1 msec readings) were recorded by microcomputer and interface assembly (San Diego Instruments). […] Sound levels were assessed with a Radio Shack dB meter. […]
The test session in all experiments consisted of a total of 90 trials after a 5-minute test acclimation period of 70 dB white noise. […] When the prepulse was paired with the 120 dB pulse, no obvious acoustic difference could be detected by the human ear as compared to the 120 dB pulse alone. […]

Another test has as its target human D2 receptor (Homo sapiens, UniProt P14416). As to the kind of experiment: Inhibition of [3H]spiperone binding to human dopamine D2 receptors. The note with it: human D2 (Long form), CHO K1 membranes. From the text: A cell line expressing human dopamine D2 (Long form) receptors was purchased from Oregon Health Sciences University, Portland, Oreg. The D2 receptor cDNA was subcloned into an expression vector, pRc/CMV. The plasmids were transfected by electroporation into CHO K1 cells. A single stable transfectant, resistant to the antibiotic 418, was isolated and selected for use in the binding studies. For D4 binding, CHO K1 cells stably transfected to express the human recombinant dopamine D4.2 receptor subtype, as described by Shih, et al., "The expression and functional characterization of human dopamine D4.2 receptor in CHO K1 cells," Soc. Neurosci., 1995;21(Part 1):621.
CHO K1 cells expressing either human D2 and D4.2 receptors were grown in 162 cm^2 culture flasks in F12 medium (Gibco Laboratories, Grand Island, N.Y.) supplemented with 10% fetal bovine serum (FBS, Hyclone, Logan, Utah) in an atmosphere of 5% CO2 /95% air at 37° C. Cells were grown until confluent, after which growth medium was removed and replaced with 0.02% ethylene diamine tetracetate (EDTA) in a phosphate-buffered saline solution (Sigma Chemical Co., St. Louis, Mo.) and scraped from the flasks. The cells were centrifuged at about 1000×g for 10 minutes at […] and then resuspended in TEM buffer (25 mM Tris-HCl, pH 7.4, 5 mM EDTA, and 6 mM MgCl2) for D2 or the D4.2 buffer (50 mM Tris-HCl, pH 7.4, 5 mM EDTA, 1.5 mM CaCl2, 5 mM KCl, and 120 mM NaCl) and homogenized. The membranes were pelleted by centrifugation at 20,000×g at […] for 20 minutes. Then the pellets were resuspended in appropriate buffer at 1 mL/flask and stored at -70° C. until used in the receptor binding assay.
Receptor Binding Assays: D2,D4.2 Dopamine Receptors
After 60 minutes incubation at 25° C., the incubations were terminated by rapid filtration through Whatmann F/B lass fibre filters (soaked for 1 hour in 0.5% polyethylenimine) on a cell harvester, with three washes of 1 mL ice-cold buffer. Individual filter disks containing the bound ligand were placed in counting vials with 4 mL of scintillation fluid (Ready Gel, Beckman Instrument Inc., Fullerton, Calif.) and then counted in a Beckman LS-6800 liquid scintillation counter at an efficiency of 45%. Nonspecific binding was defined in presence of 1 mM of haloperidol.
Saturation and competition binding data were analyzed using an iterative nonlinear least-square curve-fitting Ligand program. In competition experiments, apparent Ki values were calculated from IC50 values by method of Cheng and Prusoff, "Relationship between the inhibition constant (Ki) and the concentration of inhibitor which causes 50% inhibition (IC50) of an enzymatic reaction," Biochem. Pharmacol., 1973;22:3099-3108. Experimental compounds were made up as stock solutions in dimethyl sulfoxide (DMSO). […] Each observation was carried out in triplicate. To allow these calculations, Ki values were measured for the interaction of various ligands with the receptor. […]

Chain of human D2 receptor (P14416 whole entry): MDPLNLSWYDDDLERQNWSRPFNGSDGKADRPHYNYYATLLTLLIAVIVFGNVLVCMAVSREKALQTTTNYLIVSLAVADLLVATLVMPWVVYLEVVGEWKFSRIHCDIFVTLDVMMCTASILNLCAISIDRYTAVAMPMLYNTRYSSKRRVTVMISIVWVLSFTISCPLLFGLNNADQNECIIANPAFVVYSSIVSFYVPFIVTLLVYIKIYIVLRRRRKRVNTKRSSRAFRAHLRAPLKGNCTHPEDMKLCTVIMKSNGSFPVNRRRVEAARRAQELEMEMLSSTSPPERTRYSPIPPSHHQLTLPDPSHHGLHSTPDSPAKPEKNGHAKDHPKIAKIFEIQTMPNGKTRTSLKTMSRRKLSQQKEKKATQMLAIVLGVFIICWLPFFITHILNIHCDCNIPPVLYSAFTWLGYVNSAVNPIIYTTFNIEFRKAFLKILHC

As to `Cc1ccc(N2CCN(Cc3ccc4c(c3)NCCN4)CC2)cc1C` [Example 2, 6-[4-(3,4-Dimethylphenyl)piperazin-1-ylmethyl]-1,2,3,4-tetrahydroquinoxaline], the “blockade of apomorphine-induced disruption of prepulse inhibition in the Acoustic Startle test” value in test [1] was “significant blockade”. The same compound gave an IC50 at human D2 receptor of 2940 nM.
